# What was measured:
# mouse retina = experiment: Light-damage protection by topical PBN eye drops in mice (ERG); assay type: in vivo; settings: 10% PBN eye drop in V1 or V2; 3,000 lux 6 h; ERG five days after
# Procedure: After topical application of PBN, light-damage was done at 3,000 lux for 6 h. ERG response were recorded five days after light-damage. Two vehicles were used to solubilize and make 10% PBN eye drop formulation for topical application on mouse eye, vehicle 1 (V-1) and vehicle 2 (V-2).
# After topical application of PBN, light-damage was done at 3,000 lux for 6 h. ERG responses were recorded five days after light-damage. Two vehicles were used to solubilize and make the 10% PBN eye drop formulation for topical application on mouse eyes, vehicle 1 (V-1) and vehicle 2 (V-2). […] Vehicle 1 contains 10 mM potassium borate/bicarbonate buffer (pH 7.2), glycerine, 1.0%, carboxymethylcellulose 0.3%, benzyl alcohol 0.3%, and 30% 1-methyl-2-pyrrolidinone (a solubilizing enhancer, a.k.a., N-Methyl-2-Pyrrolidone—“NMP”). Vehicle 2 contains 137 mM sodium chloride, 2.7 mM potassium chloride in 10 mM phosphate buffer (pH 7.4), and 30% 1-methyl-2-pyrrolidinone.
# rhodopsin [1] = experiment: Rhodopsin regeneration after topical eye drops in mice; assay type: in vivo, Balb/c mice; settings: for rhodopsin recovered in 1 h in the dark: 10% PBN eye drops, DA control is 100%
# Procedure: Panel A: Application scheme and harvesting of the eye. 3 h group received 2 applications and 6 h group received 3 applications. Panel B: Rhodopsin content was measured as pmole/eye. In 1 h in the dark, untreated eyes (NT-LA 1 h DA, no treatment-light adapted followed by 1 hour dark adaptation) and vehicle-treated eyes recovered 75-80% rhodopsin [dark-adapted (DA) control is 100%], whereas 3 h PBN recovered only 43% and 6 h PBN only 29%. (***P<0.0001 compared to vehicle, n=8; ##p<0.005 between 3 h and 6 h group, n=8).
# An eye drop formulation was used with various absorption enhancers for topical application of PBN to mouse eyes. […] One hour dark adaptation followed by light causes 75-80% recovery of bleachable rhodopsin in the Balb/c mice (FIG. 18B, NT-LA 1 h DA). The eye drop without PBN (vehicle) had no effect on rhodopsin regeneration (FIG. 18B, vehicle).
# Eye drop formulations were prepared as described in Example 7 and contained 5% or 10% of a PBN derivative. The eye drop formulations were applied to Balb/c mice by the 6 h group application scheme shown in FIG. 18A, in which the eye drops were applied at 6, 3, and 0 h before dark adaptation. The eye drops were applied to completely light-adapted mouse eyes, and the mice were then moved to the dark for 1 h to allow the regeneration of bleachable rhodopsin. One hour dark adaptation followed by light causes […] recovery of bleachable rhodopsin in untreated mice (00, No Treatment). The eye drop without any nitrones (vehicle) had no effect on rhodopsin regeneration (000, vehicle).
# rhodopsin [2] = experiment: Rhodopsin regeneration after bleach in rats, IP nitrone; assay type: in vivo, rat
# Procedure: FIG. 10 graphically illustrates the effects of three PBN analogs of rhodopsin regeneration. Rhodopsin content was measured as nmole/retina following the procedure as in Mandal et al. (J Biol. Chem. 2011. 286 (37):32491-501). After injection with PBN derivatives or vehicles (saline), rats were left in room light for 2 hours (light adapted or LA) and then moved to dark. At 2.5 hours dark adaptation (DA), retinas were harvested. DA-Control, Dark adapted (12 h) control retina without any treatment to show normal rhodopsin content.
# Measurement of rhodopsin regeneration—To measure the effect of PBN on the rate of rhodopsin regeneration, dark-adapted rats were injected intraperitoneally with PBN (50 mg/kg) or PBS 0.5 hour prior to a 2 hour bleach in room light (˜400 lux). Immediately following the bleach (time=0 minutes), a group of PBN- and vehicle-treated rats were killed, and retinas were removed and snap frozen. The remaining rats were dark-adapted, and retinas were collected under dim red light at 45, 90, and 180 minutes after the bleach.
# Rhodopsin measurements were performed as described previously (2,36) with slight modification. Briefly, under dim red light, each retina was homogenized in 450 μl of buffer containing 10 mM Tris-HCl (pH 7.4), 150 mM NaCl, 1 mM EDTA, 2% (w/v) octylglucoside, and 50 mM hydroxylamine. Homogenates were centrifuged at 16,000 g, and soluble lysates were scanned from 270-800 nm in a spectrophotometer (Ultrospec 3000 UV/Vis Spectrophotometer, GE Healthcare, Piscataway, N.J.). Samples were then bleached under room light for 10 minutes and scanned again. The difference spectra at 500 nm between pre- and post-bleached samples were used to determine rhodopsin content using a molar extinction coefficient of […] (37). The values were normalized to the total lysate volume, and data are presented as rhodopsin content/retina.
compound,measurement,setting,value
"CC(C)(C)/[N+]([O-])=C/c1ccccc1 [Compound 1, α-phenyl-N-tert-butyl nitrone]",rod function (scotopic A-wave) after light-damage,mouse retina,significant restoration of rod function
same,rhodopsin recovered in 1 h in the dark,rhodopsin [1]; 3 h group (2 applications),43%
same,rhodopsin recovered in 1 h in the dark,rhodopsin [1]; 6 h group (3 applications),29%
same,% of Rhodopsin recovery,"rhodopsin [1]; 10% in eye drop at 6, 3 and 0 h before dark adaptation, LA + 1 h DA, DA control = 100",48.67%
same,inhibition of rhodopsin regeneration as eye drop,"rhodopsin [1]; eye drop formulation, summary of Table 7",inhibited rhodopsin regeneration significantly
same,regeneration of bleachable rhodopsin,"rhodopsin [1]; one drop (~50 μl) containing 10% PBN, 1 h dark",significantly inhibited
same,effect on rhodopsin regeneration,"rhodopsin [2]; 50 mg/kg IP, 2.5 hours in the dark (FIG. 10)",blocked rhodopsin regeneration significantly
same,rhodopsin regenerated after bleach,"rhodopsin [2]; 50 mg/kg IP, 45 minutes in darkness after 2 h bleach",virtually no rhodopsin was regenerated
same,bleachable rhodopsin recovered,"rhodopsin [2]; 50 mg/kg IP, dark adaptation for 3 hours after 2 h bleach",~30%
same,inhibition at 50 mg/kg,"rhodopsin [2]; Rattus norvegicus, rats, 50 mg/kg IP, 2 h room light then 2.5 h dark adaptation",83%
same,rhodopsin content of rats maintained in darkness,"rhodopsin [2]; fully dark-adapted rats, mean±SEM",1.38±0.14 nmol/eye

# Reference: patent publication US20130225694A1, “COMPOSITIONS AND METHODS OF INHIBITING RETINAL DEGENERATION” (Oklahoma Medical Research Foundation, priority 2012, published 2013)
